Series [1] addresses T1, CB1 receptors (Rattus norvegicus, UniProt P20272). Description: Hypothermia test in vivo, compound alone (rectal temperature). Details: from tissue; host or cells: whole animal (rat), central CB1 receptors of the hypothalamus. Particulars: i.p., doses 0.1, 0.5, 1.0, 3.0, 6.0 mg/kg, versus physiological solution (38° C.). The protocol:
The test was carried out with the compound of the Example 3.1c. Aqueous samples were used wherein the compound of the Example 3.1c was dispersed in water with three drops of Tween 80. Following the above procedure, treatments were carried out with doses (mg compound/kg of body weight) respectively of 0.1; 0.5; 1.0; 3.0; 6.0.

In another series the target is T2, CB2 receptors (Rattus norvegicus, UniProt Q9QZN9).
T2 construct: the brain in toto (cerebellum excluded) and the spleen were rapidely dissected; from tissue; host or cells: rat spleen membranes
T2 sequence (Q9QZN9 1-360): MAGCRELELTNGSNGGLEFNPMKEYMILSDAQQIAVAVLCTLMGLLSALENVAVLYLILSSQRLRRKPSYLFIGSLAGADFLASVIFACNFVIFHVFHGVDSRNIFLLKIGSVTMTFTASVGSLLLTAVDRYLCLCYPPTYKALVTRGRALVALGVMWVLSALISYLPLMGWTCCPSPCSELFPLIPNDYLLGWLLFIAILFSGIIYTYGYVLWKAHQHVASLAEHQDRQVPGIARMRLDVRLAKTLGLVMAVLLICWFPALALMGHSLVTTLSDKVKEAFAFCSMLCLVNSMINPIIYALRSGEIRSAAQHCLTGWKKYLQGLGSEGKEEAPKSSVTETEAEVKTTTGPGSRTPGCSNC
As to the kind of experiment: Radioreceptor binding, [3H]-CP-55,940 displacement, rat spleen membranes. Particulars: 1 nM [3H]-CP55,940. The text has this:
(§1) The receptorial binding technique allows indeed to establish if and with what affinity and specificity a determined compound binds itself to a particular receptor. To evaluate the affinity of a determined compound towards a particular receptor, a particular preparation of the tissue wherein the receptors are present is used and the tested compound is made to compete with another compound, treated so as to make it radioactive and of which the affinity for the receptor is known. […] The reading of the radioactivity present in the receptor-compound complex allows furthermore to precisely calculate the compound amount bound to the receptor. By this method it is therefore possible to rapidely identify the affinity of a new compound towards a specific receptor and thus to make predictions on its pharmacological activity. By repeating the same experimental scheme it is possible to evaluate the affinity of the compound towards other kinds of receptors and thus establish the specificity degree.
(§2) Food and water were available ad libitum.
(§3) The animals were sacrificed by cervical dislocation, the brain in toto (cerebellum excluded) and the spleen were rapidely dissected and maintained in ice.
(§4) The tissue was homogenized in 15 volumes (weight/volume) of TME buffer (50 mM Tris, 1 mM EDTA e 3 mM MgCl2, pH 7.4) by an Ultra-Turrax and centrifuged for 10 minutes at 1086×g in a centrifuge cooled at 4° C. The resulting supernatant was centrifuged at 45,000×g for 30 min at 4° C. by using a Beckman SW41 rotor and the final pellet was resuspended in 50 volumes of TME.
(§5) The obtained membranes (50-80 μg of proteins) were incubated in the presence of 1 nM di [^3H]-CP55,940 for 1 h at 30° C. in a final volume of 0.5 ml of TME buffer containing 5 mg/ml of bovine serum albumin (BSA). The non specific binding was measured in the presence of CP55,940 at the 1 μM concentration. […]
(§6) The radioactivity present in the filters was measured by a scintillator spectrophotometer (Tricarb 2100, Packard, Meridien, USA). […]

The target of series [2] is T1, CB1 receptors. As to the kind of experiment: Radioreceptor binding, [3H]-CP-55,940 displacement, rat brain membranes. The arrangement: from tissue; host or cells: whole animal (rat), central CB1 receptors of the hypothalamus. Particulars: 1 nM [3H]-CP55,940.
Text: as §1, §2, §3, §4, §5, §6

The values below come from patent publication US8227620B2, “Pharmaceutical compounds” (Neuroscienze Pharmaness S.C. A.R.L., priority 2004, dated 2012).

One may read the melting point as the temperature of the solid-liquid transition. By Ki is commonly meant the dissociation constant of the complex between target and ligand, obtained from inhibition or displacement. Lower therefore signals a stronger hold on the target.

T1 sequence (P20272 whole entry): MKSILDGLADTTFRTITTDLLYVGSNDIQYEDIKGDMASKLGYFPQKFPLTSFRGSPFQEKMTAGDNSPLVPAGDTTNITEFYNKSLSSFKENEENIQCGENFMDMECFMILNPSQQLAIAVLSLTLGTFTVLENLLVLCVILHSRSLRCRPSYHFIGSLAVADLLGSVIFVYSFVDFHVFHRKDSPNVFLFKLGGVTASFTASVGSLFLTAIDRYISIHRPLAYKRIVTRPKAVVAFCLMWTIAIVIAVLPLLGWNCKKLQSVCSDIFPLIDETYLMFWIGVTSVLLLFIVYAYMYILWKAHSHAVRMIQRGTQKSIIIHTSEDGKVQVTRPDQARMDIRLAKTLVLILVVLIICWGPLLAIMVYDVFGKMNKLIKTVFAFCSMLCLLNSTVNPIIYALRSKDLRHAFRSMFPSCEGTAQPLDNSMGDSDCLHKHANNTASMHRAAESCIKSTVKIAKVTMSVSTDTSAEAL

The compound `Cc1c(C(=O)Nc2ccccc2)nn(-c2ccc(Cl)cc2Cl)c1-c1ccc(Cl)s1` registered a melting point of 175 to 176 °C.
With `Cc1c(C(=O)NN2CCCCCC2)nn(-c2ccc(Cl)cc2Cl)c1-c1ccc(Cl)s1` [Example 3.1c, N-homopiperidinyl-5-(5-Chloro-thiophen-2-yl)-1-(2′,4′-dichloro-phenyl)-4-methyl-1H-pyrazol-3-carboxamide], at CB1 receptors [1], the “effect of the compound as such on body temperature” value is reported as “In none of the examined cases there was a reduction of the body temperature”. Moreover, the Ki was 270 ± 5 nM at CB2 receptors and 21 ± 1 nM on CB1 receptors [2].
